In patent publication US10160755B2 (Plexxikon Inc., priority 2015, dated 2018):

How the values were obtained:
[1] = target: T1, FLT3-D835Y (Homo sapiens, UniProt P36888, D835Y); test: FLT3-D835Y biochemical kinase assay (AlphaScreen)
T1 construct: purchased Invitrogen PV3967
T1 sequence (P36888 27-993 D835Y): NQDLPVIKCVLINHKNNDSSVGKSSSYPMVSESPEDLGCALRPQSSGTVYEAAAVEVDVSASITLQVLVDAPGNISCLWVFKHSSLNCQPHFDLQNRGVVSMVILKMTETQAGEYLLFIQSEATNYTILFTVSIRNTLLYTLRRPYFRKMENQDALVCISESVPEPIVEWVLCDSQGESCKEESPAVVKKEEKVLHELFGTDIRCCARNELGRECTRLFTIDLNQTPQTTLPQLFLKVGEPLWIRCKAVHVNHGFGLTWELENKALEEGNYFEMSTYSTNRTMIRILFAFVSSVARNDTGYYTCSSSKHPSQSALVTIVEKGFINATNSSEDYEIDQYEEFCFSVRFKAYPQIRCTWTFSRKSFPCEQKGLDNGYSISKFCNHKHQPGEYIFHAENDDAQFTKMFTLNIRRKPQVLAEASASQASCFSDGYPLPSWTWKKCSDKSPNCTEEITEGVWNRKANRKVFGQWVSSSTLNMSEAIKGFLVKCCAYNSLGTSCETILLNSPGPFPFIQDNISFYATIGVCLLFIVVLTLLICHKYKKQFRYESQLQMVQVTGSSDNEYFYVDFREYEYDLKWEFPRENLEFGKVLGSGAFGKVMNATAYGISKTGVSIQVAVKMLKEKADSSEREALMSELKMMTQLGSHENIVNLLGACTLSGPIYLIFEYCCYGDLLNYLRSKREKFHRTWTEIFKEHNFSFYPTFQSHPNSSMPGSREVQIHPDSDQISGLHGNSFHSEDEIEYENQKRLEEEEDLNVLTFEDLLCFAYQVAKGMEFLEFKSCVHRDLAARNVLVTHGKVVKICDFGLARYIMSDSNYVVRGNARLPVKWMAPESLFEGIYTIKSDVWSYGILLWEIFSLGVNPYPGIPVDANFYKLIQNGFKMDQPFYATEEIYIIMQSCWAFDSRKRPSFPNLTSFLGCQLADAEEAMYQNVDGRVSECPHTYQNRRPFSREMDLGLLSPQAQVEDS
Outline: (§1)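 Read-out is AlphaScreen at 580 nm, where reduced substrate tyrosine phosphorylation lowers bead proximity signal. Reactions contain 30 nM biotinylated poly(Glu4-Tyr) and ATP at 10 μM (D835Y) or 100 μM (ITD); PY20 acceptor beads 10 μg/mL final, 60 min at room temperature before reading.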

[2] = target: T2, FLT3-ITD (Homo sapiens, UniProt P36888); test: FLT3-ITD biochemical kinase assay (AlphaScreen)
T2 construct: FLT3-ITD; Invitrogen #PV6190
T2 sequence (P36888 1-993): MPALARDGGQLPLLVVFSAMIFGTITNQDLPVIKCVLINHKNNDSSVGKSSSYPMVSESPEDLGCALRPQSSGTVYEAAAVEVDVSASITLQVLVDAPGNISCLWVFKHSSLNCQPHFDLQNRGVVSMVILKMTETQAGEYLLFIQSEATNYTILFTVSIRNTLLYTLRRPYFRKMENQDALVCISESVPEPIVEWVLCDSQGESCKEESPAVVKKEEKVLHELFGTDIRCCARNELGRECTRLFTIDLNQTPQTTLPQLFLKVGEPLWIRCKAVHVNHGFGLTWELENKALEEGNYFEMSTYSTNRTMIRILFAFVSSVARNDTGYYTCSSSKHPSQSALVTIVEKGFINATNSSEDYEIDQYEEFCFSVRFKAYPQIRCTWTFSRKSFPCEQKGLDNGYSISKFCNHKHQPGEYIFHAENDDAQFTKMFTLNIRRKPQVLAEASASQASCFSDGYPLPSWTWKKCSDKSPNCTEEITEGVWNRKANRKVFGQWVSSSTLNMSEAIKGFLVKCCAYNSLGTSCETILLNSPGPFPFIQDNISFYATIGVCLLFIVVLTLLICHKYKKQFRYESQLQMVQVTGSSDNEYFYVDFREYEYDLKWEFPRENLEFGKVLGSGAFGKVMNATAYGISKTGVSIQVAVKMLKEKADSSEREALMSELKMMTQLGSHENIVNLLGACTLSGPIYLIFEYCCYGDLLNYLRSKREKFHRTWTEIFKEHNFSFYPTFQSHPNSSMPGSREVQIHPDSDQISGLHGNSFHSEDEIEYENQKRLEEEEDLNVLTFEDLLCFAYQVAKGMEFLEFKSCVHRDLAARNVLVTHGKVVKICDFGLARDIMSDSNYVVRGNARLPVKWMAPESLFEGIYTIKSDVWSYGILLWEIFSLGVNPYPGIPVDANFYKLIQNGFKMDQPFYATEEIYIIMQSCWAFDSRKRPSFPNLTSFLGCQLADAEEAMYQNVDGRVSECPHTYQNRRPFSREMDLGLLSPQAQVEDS
Outline: as §1

SMILES	IC50 [1]	IC50 [2]
C#Cc1cnc2[nH]cc(-c3ccc4ncn(C(C)(C)C)c4c3)c2c1 [P-244, 1-tert-butyl-6-(5-ethynyl-1H-pyrrolo[2,3-b]pyridin-3-yl)benzimidazole]	0.0001 to 1 µM	0.0001 to 1 µM
COc1cnc2[nH]cc(-c3ccc4ncn(-c5ccc(F)c(C)c5)c4c3)c2c1 [P-129, 1-(4-fluoro-3-methyl-phenyl)-6-(5-methoxy-1H-pyrrolo[2,3-b]pyridin-3-yl)benzimidazole]	0.0001 to 1 µM	0.0001 to 1 µM
N#Cc1cccc(-c2cnc3[nH]cc(-c4ccc5ncn(-c6ccc(F)c(Cl)c6)c5c4)c3c2)c1 [P-210, 3-[3-[3-(3-chloro-4-fluoro-phenyl)benzimidazol-5-yl]-1H-pyrrolo[2,3-b]pyridin-5-yl]benzonitrile]	0.0001 to 1 µM	0.0001 to 1 µM
COc1cc(C(=O)Nc2cnc3[nH]cc(-c4ccc5ncn(C(C)(C)C)c5c4)c3c2)ccn1 [P-245, N-[3-(3-tert-butylbenzimidazol-5-yl)-1H-pyrrolo[2,3-b]pyridin-5-yl]-2-methoxy-pyridine-4-carboxamide]	0.0001 to 1 µM	0.0001 to 1 µM
COc1ncc(-c2cnc3[nH]cc(-c4ccc5ncn(C(C)C)c5c4)c3c2)cn1 [P-269, 1-isopropyl-6-[5-(2-methoxypyrimidin-5-yl)-1H-pyrrolo[2,3-b]pyridin-3-yl]benzimidazole]	0.0001 to 1 µM	0.0001 to 1 µM
FC(F)n1cc(-c2cnc3[nH]cc(-c4ccc5ncn(C6CCCNC6)c5c4)c3n2)cn1 (stereo not drawn) [P-257, 2-[1-(difluoromethyl)pyrazol-4-yl]-7-[3-(3-piperidyl)benzimidazol-5-yl]-5H-pyrrolo[2,3-b]pyrazine]	0.0001 to 1 µM	0.0001 to 1 µM
c1cc(-c2cnc3[nH]cc(-c4ccc5ncn(C6CCCNC6)c5c4)c3n2)cc(N2CCOCC2)n1 (stereo not drawn) [P-262, 4-[4-[7-[3-(3-piperidyl)benzimidazol-5-yl]-5H-pyrrolo[2,3-b]pyrazin-2-yl]-2-pyridyl]morpholine]	0.0001 to 1 µM	0.0001 to 1 µM
CCCS(=O)(=O)Nc1cccc(-c2cnc3[nH]cc(-c4ccc5ncn(C6CCCNC6)c5c4)c3c2)c1 (stereo not drawn) [P-217, N-[3-[3-[3-(3-piperidyl)benzimidazol-5-yl]-1H-pyrrolo[2,3-b]pyridin-5-yl]phenyl]propane-1-sulfonamide]	0.0001 to 1 µM	0.0001 to 1 µM
CC(C)(C)n1cnc2ccc(-c3c[nH]c4ncc(-c5cccc(NS(C)(=O)=O)c5)nc34)cc21 [P-097, N-[3-[7-(3-tert-butylbenzimidazol-5-yl)-5H-pyrrolo[2,3-b]pyrazin-2-yl]phenyl]methanesulfonamide]	0.0001 to 1 µM	0.0001 to 1 µM
C(#Cc1cnc2[nH]cc(-c3ccc4ncn(C5CCCNC5)c4c3)c2n1)c1ccccc1 (stereo not drawn) [P-248, 2-(2-phenylethynyl)-7-[3-(3-piperidyl)benzimidazol-5-yl]-5H-pyrrolo[2,3-b]pyrazine]	0.0001 to 1 µM	0.0001 to 1 µM
O=S(=O)(c1cccc(-c2cnc3[nH]cc(-c4ccc5ncn(C6CCCNC6)c5c4)c3c2)c1)N1CCCC1 (stereo not drawn) [P-222, 1-(3-piperidyl)-6-[5-(3-pyrrolidin-1-ylsulfonylphenyl)-1H-pyrrolo[2,3-b]pyridin-3-yl]benzimidazole]	0.0001 to 1 µM	0.0001 to 1 µM
CC(C)(C)n1cnc2ccc(-c3c[nH]c4ncc(-c5cnn(C(F)F)c5)nc34)cc21 [P-255, 7-(3-tert-butylbenzimidazol-5-yl)-2-[1-(difluoromethyl)pyrazol-4-yl]-5H-pyrrolo[2,3-b]pyrazine]	0.0001 to 1 µM	0.0001 to 1 µM
CC(C)(C)n1cnc2ccc(-c3c[nH]c4ncc(-c5ccnc(N6CCOCC6)c5)nc34)cc21 [P-228, 4-[4-[7-(3-tert-butylbenzimidazol-5-yl)-5H-pyrrolo[2,3-b]pyrazin-2-yl]-2-pyridyl]morpholine]	0.0001 to 1 µM	0.0001 to 1 µM
c1cc(N2CCOCC2)ccc1-c1cnc2[nH]cc(-c3ccc4ncn(C5CCCNC5)c4c3)c2n1 (stereo not drawn) [P-101, 4-[4-[7-[3-(3-piperidyl)benzimidazol-5-yl]-5H-pyrrolo[2,3-b]pyrazin-2-yl]phenyl]morpholine]	0.0001 to 1 µM	0.0001 to 1 µM
C#Cc1cnc2[nH]cc(-c3ccc4ncn(C5CCCNC5)c4c3)c2n1 (stereo not drawn) [P-270, 2-ethynyl-7-[3-(3-piperidyl)benzimidazol-5-yl]-5H-pyrrolo[2,3-b]pyrazine]	0.0001 to 1 µM	0.0001 to 1 µM
COc1cnc2[nH]cc(-c3ccc4ncn(-c5cccc(Cl)c5)c4c3)c2c1 [P-105, 1-(3-chlorophenyl)-6-(5-methoxy-1H-pyrrolo[2,3-b]pyridin-3-yl)benzimidazole]	0.0001 to 1 µM	0.0001 to 1 µM
CCCS(=O)(=O)Nc1cccc(-c2cnc3[nH]cc(-c4ccc5ncn(C(C)(C)C)c5c4)c3n2)c1 [P-225, N-[3-[7-(3-tert-butylbenzimidazol-5-yl)-5H-pyrrolo[2,3-b]pyrazin-2-yl]phenyl]propane-1-sulfonamide]	0.0001 to 1 µM	0.0001 to 1 µM
N#Cc1cccc(C(=O)Nc2cnc3[nH]cc(-c4ccc5ncn(C6CCCNC6)c5c4)c3c2)c1 (stereo not drawn) [P-236, 3-cyano-N-[3-[3-(3-piperidyl)benzimidazol-5-yl]-1H-pyrrolo[2,3-b]pyridin-5-yl]benzamide]	0.0001 to 1 µM	0.0001 to 1 µM
COc1cc(-c2cnc3[nH]cc(-c4ccc5ncn(C(C)(C)C)c5c4)c3n2)ccn1 [P-099, 7-(3-tert-butylbenzimidazol-5-yl)-2-(2-methoxy-4-pyridyl)-5H-pyrrolo[2,3-b]pyrazine]	0.0001 to 1 µM	0.0001 to 1 µM
O=S1(=O)CCCCN1c1cccc(-c2cnc3[nH]cc(-c4ccc5ncn(C6CCCNC6)c5c4)c3c2)c1 (stereo not drawn) [P-224, 2-[3-[3-[3-(3-piperidyl)benzimidazol-5-yl]-1H-pyrrolo[2,3-b]pyridin-5-yl]phenyl]thiazinane 1,1-dioxide]	0.0001 to 1 µM	0.0001 to 1 µM
FC(F)(F)Oc1cccc(-c2cnc3[nH]cc(-c4ccc5ncn(C6CCCNC6)c5c4)c3n2)c1 (stereo not drawn) [P-193, 7-[3-(3-piperidyl)benzimidazol-5-yl]-2-[3-(trifluoromethoxy)phenyl]-5H-pyrrolo[2,3-b]pyrazine]	0.0001 to 1 µM	0.0001 to 1 µM
COc1cnc2[nH]cc(-c3ccc4ncn(Cc5ccc(F)cc5)c4c3)c2c1 [P-110, 1-[(4-fluorophenyl)methyl]-6-(5-methoxy-1H-pyrrolo[2,3-b]pyridin-3-yl)benzimidazole]	0.0001 to 1 µM	0.0001 to 1 µM
CC(C)(C)n1cnc2ccc(-c3c[nH]c4ncc(-c5ccc(N6CCOCC6)cc5)nc34)cc21 [P-100, 4-[4-[7-(3-tert-butylbenzimidazol-5-yl)-5H-pyrrolo[2,3-b]pyrazin-2-yl]phenyl]morpholine]	0.0001 to 1 µM	0.0001 to 1 µM
COc1cc(-c2cnc3[nH]cc(-c4ccc5ncn(C(C)C)c5c4)c3n2)ccn1 [P-113, 7-(3-isopropylbenzimidazol-5-yl)-2-(2-methoxy-4-pyridyl)-5H-pyrrolo[2,3-b]pyrazine]	0.0001 to 1 µM	0.0001 to 1 µM
